From PubChem BioAssay (NCI)
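Interpolation was linear, between the two tested concentrations surrounding the appropriate level; five concentrations were tested over 48 hours in 96-well plates. GI50 marks 50% less growth. TGI: total growth inhibition.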

Experiments:
Assay in all cases: NCI tumour cell line growth inhibition, 48 h
BT-549 breast = system: BT-549 breast
MDA-N = system: MDA-N
A498 renal = system: A498 renal
MDA-MB-435 = system: MDA-MB-435
M14 melanoma = system: M14 melanoma
MDA-MB-231 breast = system: MDA-MB-231 breast
ACHN renal = system: ACHN renal
HS 578T breast = system: HS 578T breast
NCI/ADR-RES ovarian = system: NCI/ADR-RES ovarian
M19-MEL melanoma = system: M19-MEL melanoma
SNB-78 CNS = system: SNB-78 CNS
RXF 393 renal = system: RXF 393 renal

Structure (SMILES): C=C(C)[C@@H]1CC[C@]2(C)CC[C@]3(C)[C@H](CC[C@@H]4[C@@]5(C)CC[C@H](OC(=O)c6ccccc6)C(C)(C)[C@@H]5CC[C@]43C)[C@@H]12
- TGI (BT-549 breast): > 100 µM
- TGI (MDA-N): > 100 µM
- TGI (A498 renal): > 100 µM
- TGI (MDA-MB-435): > 100 µM
- TGI (M14 melanoma): > 100 µM
- TGI (MDA-MB-231 breast): > 100 µM
- TGI (ACHN renal): > 100 µM
- TGI (HS 578T breast): > 100 µM
- TGI (NCI/ADR-RES ovarian): > 100 µM

Structure (SMILES): CC1SC(c2ccccc2)N(Nc2c3ccccc3nc3ccccc23)C1=O (stereo unspecified)
- TGI (M19-MEL melanoma): > 100 µM
- TGI (SNB-78 CNS): > 100 µM
- TGI (M14 melanoma): > 100 µM
- TGI (ACHN renal): > 100 µM

Structure (SMILES): COc1ccc(-c2cc(-c3ccccc3)n(C3OCC(OC(C)=O)C(OC(C)=O)C3OC(C)=O)c(=S)c2C#N)cc1 (stereo unspecified)
- TGI (RXF 393 renal): > 100 µM
- TGI (BT-549 breast): > 100 µM
- TGI (MDA-N): > 100 µM
- TGI (A498 renal): > 100 µM
- TGI (MDA-MB-435): > 100 µM
- TGI (M14 melanoma): > 100 µM
- TGI (MDA-MB-231 breast): > 100 µM
- TGI (ACHN renal): > 100 µM
- TGI (HS 578T breast): > 100 µM
- TGI (NCI/ADR-RES ovarian): > 100 µM

Structure (SMILES): COc1ccc(NS(=O)c2ccc(-c3ccccc3)cc2)cc1 (stereo unspecified)
- TGI (RXF 393 renal): > 100 µM
- TGI (MDA-N): > 100 µM
- TGI (MDA-MB-435): > 100 µM
- TGI (M14 melanoma): > 100 µM
- TGI (MDA-MB-231 breast): > 100 µM
- TGI (ACHN renal): > 100 µM
- TGI (HS 578T breast): 31.2 µM
- TGI (NCI/ADR-RES ovarian): > 100 µM

Structure (SMILES): CN1CCN(c2ccc(-c3ccc4ncc(C#N)c(Nc5ccc(F)c(Cl)c5)c4c3)cc2)CC1
- GI50 (RXF 393 renal): 1.62 µM
- TGI (RXF 393 renal): 5.54 µM
- GI50 (BT-549 breast): 3.77 µM
- TGI (BT-549 breast): 17.9 µM
- GI50 (A498 renal): 2.43 µM
- TGI (A498 renal): 12.4 µM
- GI50 (MDA-MB-435): 1.89 µM
- TGI (MDA-MB-435): 3.68 µM
- GI50 (MDA-MB-231 breast): 6 µM
- TGI (MDA-MB-231 breast): 28.5 µM
- GI50 (ACHN renal): 0.491 µM
- TGI (ACHN renal): 2.72 µM
- GI50 (HS 578T breast): 2.55 µM
- TGI (HS 578T breast): 9.88 µM
- GI50 (NCI/ADR-RES ovarian): 4.57 µM
- TGI (NCI/ADR-RES ovarian): 27.9 µM

Structure (SMILES): O=C(N/C(=C\c1ccccc1[N+](=O)[O-])c1nc2ccccc2[nH]1)c1ccccc1
- TGI (M19-MEL melanoma): > 100 µM
- TGI (SNB-78 CNS): > 100 µM
- TGI (RXF 393 renal): > 100 µM
- TGI (M14 melanoma): > 100 µM

Structure (SMILES): Nc1ccc2c(c1)C1=NNC(=O)CC1C2 (stereo unspecified)
- TGI (M19-MEL melanoma): > 100 µM
- TGI (SNB-78 CNS): > 100 µM
- TGI (RXF 393 renal): > 100 µM
- TGI (A498 renal): > 100 µM
- TGI (NCI/ADR-RES ovarian): > 100 µM
